Measured values: publication PMC10154249, “Unique progerin C-terminal peptide ameliorates Hutchinson–Gilford progeria syndrome phenotype by rescuing BUBR1” (Nature Aging, 2023)

What was measured:
BUBR1 promoter = assay: Luciferase assay of BUBR1 promoter in HEK-293T cells; type: cell-based; settings: for Relative luciferase activity of BUBR1 promoter (UPCP/Mock): Fig. 4b, HEK293T, Mock = 1, P=0.684
Protocol: The experiments were performed as described previously. The BUBR1 (–1,200 to +100) promoter or the DNA fragment of BUBR1 mRNA 3′-UTR was inserted into the pGL4.20 vector. Cells were plated in 24-well plates. After 24 h, cells were cotransfected with 200 ng of the indicated firefly luciferase reporter plasmid and 50 ng of Renilla luciferase normalization control plasmid using PEI. At 48 h after transfection, cell lysates were collected to measure luciferase activity using the Dual-Luciferase Reporter Assay System (Promega, catalog no. E1910) according to the manufacturer’s instructions. Luciferase reporter assay was carried out on an TD-20/20 Turner Designs luminometer, data were analyzed and further processed in Microsoft Excel and GraphPad Prism v.7.

[1] = system: lamin B1, p21 and IL-6 in skin of Lmna^G609G/G609G mice; assay: IHC of lamin B1, p21 and IL-6 in skin of Lmna^G609G/G609G mice; type: in vivo, mouse; settings: for p21 positive cells / IL-6 positive cells / LaminB1 positive cells: LmnaG609G/G609G+UPCP; for p21 positive cells: P=0.0003 vs LmnaG609G/G609G-Mock; for IL-6 positive cells: P=0.0012 vs LmnaG609G/G609G-Mock; for LaminB1 positive cells: P=0.0142 vs LmnaG609G/G609G-Mock
Protocol: For UPCP injection, 14-day-old Lmna^G609G/G609G mice were injected intraperitoneally with either PBS or UPCP (20 mg kg^–1, every other day) and wild-type mice were injected with PBS. All phenotypic analyses were performed after 12 weeks of treatment with UPCP. Bodyweight and lifespan were monitored after UPCP treatment. The survival rate was analyzed by the Kaplan–Meier method. We only included mice that were of sufficient bodyweight at the start of the experiment, typically at least 80% of the average littermate weight of the same sex and genotype. All animals meeting criteria for inclusion were then divided randomly into three groups according to genotype (Lmna^+/+, Lmna^G609G/G609G-Mock and Lmna^G609G/G609G-UPCP).
For histological analyses, mice of the indicated genotypes were perfused with PBS, then with 4% paraformaldehyde (PFA). Whole organs were incubated in 4% PFA at 4 °C for 16 h. All samples were paraffin embedded and sectioning by Servicebio. Subsequently, the tissues were deparaffinized and rehydrated before hematoxylin-eosin (HE) or Masson staining or immunohistochemistry (IHC). HE staining was performed using an HE Kit (Absin, catalog no. abs9217), and Masson staining was performed using Masson’s Trichrome Stain Kit (Absin, catalog no. abs9347) according to the manufacturer’s instructions. The thickness of the layers or the areas of fibrosis in the tissues were calculated using ImageJ software by a blinded investigator. For IHC, the sections were completed by the Servicebio. The images were acquired by a microscope (Leica DMi8) and analyzed with Leica Application Suite X v.3.6.0.24 (Leica). For BubR1, cytoplasmic staining in cells was scored on the intensity of staining and the proportion of positive cells by a blinded investigator. The intensity of the staining was graded as 0 (negative, no color), 1 (low positive, light yellow), 2 (positive, brown yellow) or 3 (high positive, brown), and the number of positive cells was graded as 0 (<5%), 1 (5–25%), 2 (25–50%), 3 (51–75%) or 4 (>75%). The final score was defined as staining number score multiplied by staining color score. For lamin B1, p21 or IL-6, the proportion of positive cells was used to quantify the expression of protein in tissues by a blinded investigator.

IMR90 cells = assay: Cell survival rate analysis in IMR90 cells; type: cell-based, human; settings: Fig. 5o, 48h
Protocol: Cell viability was assessed using the Cell Counting Kit-8 (CCK8) (APE, catalog no. k1018). The cells were plated in triplicate in 96-well plates (typically 10,000 cells per 100 μl per well) and were incubated with fresh medium for 24 h. Then, the cells were incubated with different concentrations (0 μM, 10 μM, 20 μM, 30 μM) of UPCP for 0 h, 24 h, 48 h or 72 h. CCK8 solution (10 μl) was added to the well for a 2 h incubation at 37 °C. Absorbance was measured at 450 nm with a 96-well plate reader (Tecan Infinite M NANO^+). Data were analyzed and further processed in i-control v.2.0 and GraphPad Prism v.7.

BUBR1–PTBP1 binding = assay: CoIP of PTBP1 and BUBR1 in HEK-293T cells; type: cell-based; settings: UPCP 18 μM, 48 h
Protocol: Detailed descriptions of CoIP were described previously[55],[56]. Cells were harvested and washed three times in cold PBS, then lysed in CoIP buffer (25 mM Tris-HCl (pH 7.5), 150 mM KCl, 5 mM EDTA, and 0.5% NP-40) plus protease inhibitor cocktail tablet (Roche). Incubate on ice and shock lysates on the vortex shaker 15 times for 30 s each. Microcentrifuge in 12,000g for 15 min at 4 °C, collect the supernatant, and incubate with 3 μg primary antibodies with gentle shaking overnight at 4 °C, followed by adding 20–40 μl Pure Proteome Protein A/G Mix Magnetic Beads (Millipore, catalog no. […]02) for 3 h. Wash the beads three times with 1 ml CoIP buffer for 8 min each, resuspend in 50 μl 1× loading buffer, and incubate at 100 °C for 8 min. Throw beads away and analyze by immunoblotting.

[2] = skin, 20 mg kg^–1 i.p. every other day

For “H-YGRKKRRQRRRYNLRSRTVLCGTCGQPADKASASGSGAQSPQNCSIM-OH (cysteines drawn unpaired) [UPCP, unique progerin C-terminal peptide]”, the “Relative luciferase activity of BUBR1 promoter (UPCP/Mock)” value (BUBR1 promoter; replicate 1) was 0.9458, the “Relative luciferase activity of BUBR1 promoter (UPCP/Mock)” value (BUBR1 promoter; replicate 2) was 1.36 and the “Relative luciferase activity of BUBR1 promoter (UPCP/Mock)” value (BUBR1 promoter; replicate 3) was 0.8889. The “luciferase activity of the BUBR1 promoter” value (BUBR1 promoter; HEK-293T cells) was “failed to enhance luciferase activity of the BUBR1 promoter”, the p21 positive cells ([1]; replicate 1) was 0.2237 and the IL-6 positive cells ([1]; replicate 1) was 0.4348. It also gave a LaminB1 positive cells ([1]; replicate 1) of 0.5254, a p21 positive cells ([1]; replicate 2) of 0.3636 and an IL-6 positive cells ([1]; replicate 2) of 0.5192. For the same substance, the LaminB1 positive cells ([1]; replicate 2) was 0.7647, the p21 positive cells ([1]; replicate 3) was 0.2043 and the IL-6 positive cells ([1]; replicate 3) was 0.5517. The LaminB1 positive cells ([1]; replicate 3) was 0.3729, the p21 positive cells ([1]; replicate 4) was 0.2308 and the IL-6 positive cells ([1]; replicate 4) was 0.5702. The LaminB1 positive cells ([1]; replicate 4) was 0.6429, the p21 positive cells ([1]; replicate 5) was 0.3175 and the IL-6 positive cells ([1]; replicate 5) was 0.5897. For the same substance, the LaminB1 positive cells ([1]; replicate 5) was 0.6739, the p21 positive cells ([1]; replicate 6) was 0.1875 and the IL-6 positive cells ([1]; replicate 6) was 0.375. The LaminB1 positive cells ([1]; replicate 6) was 0.598, the “number of lamin B1 positive cells” value [1, 2] was “increase the number of lamin B1 positive cells” and the “p21 and IL-6 expression” value [1, 2] was “reduce p21 and IL-6 expression in the skin”. For the same substance, the “Cell survival rate analysis (UPCP-OD/Mock-OD)” value (from here on “Cell survival rate analysis”) (IMR90 cells; 10μM, UPCP-0μM = 1, P=0.1549, replicate 1) was 0.9983, the “Cell survival rate analysis” value (IMR90 cells; 10μM, UPCP-0μM = 1, P=0.1549, replicate 2) was 1.052 and the “Cell survival rate analysis” value (IMR90 cells; 10μM, UPCP-0μM = 1, P=0.1549, replicate 3) was 1.032. The “Cell survival rate analysis” value (IMR90 cells; 20μM, UPCP-0μM = 1, P=0.2306, replicate 1) was 1.032, the “Cell survival rate analysis” value (IMR90 cells; 20μM, UPCP-0μM = 1, P=0.2306, replicate 2) was 1.043 and the “Cell survival rate analysis” value (IMR90 cells; 20μM, UPCP-0μM = 1, P=0.2306, replicate 3) was 1.31. For the same substance, the “Cell survival rate analysis” value (IMR90 cells; 30μM, UPCP-0μM = 1, P=0.4981, replicate 1) was 0.9716, the “Cell survival rate analysis” value (IMR90 cells; 30μM, UPCP-0μM = 1, P=0.4981, replicate 2) was 1.072 and the “Cell survival rate analysis” value (IMR90 cells; 30μM, UPCP-0μM = 1, P=0.4981, replicate 3) was 1.021. The “binding of BUBR1 to PTBP1” value (BUBR1–PTBP1 binding) was “did not block the binding of BUBR1 to other proteins such as PTBP1”.
